The text below walks through data of patent EP2017288A1, “Protease stabilized, pegylated insulin analogues” (NOVO NORDISK A/S, priority 2007, dated 2009).

The nature of this assay: Pulmonary delivery to rats (intratracheal drop instillation). The class given is in vivo, male Wistar rats. Conditions: statement in words; Fig. 1 is a rat intratracheal drop instillation of the insulin of example 1. How it is done: The test substance will be dosed pulmonary by the drop instillation method. In brief, male Wistar rats (app.250 g) are anaesthesized in app. […] fentanyl/dehydrodenzperidol/-dormicum given as a 6.6 ml/kg sc primingdose and followed by 3 maintainance doses of 3.3 ml/kg sc with an interval of 30 min. Ten minutes after the induction of anaesthesia, basal samples are obtained from the tail vein (t = -20 min) followed by a basal sample immediately prior to the dosing of test substance (t=0). At t=0, the test substance is dosed intra tracheally into one lung. A special cannula with rounded ending is mounted on a syringe containing the 200 ul air and test substance (1 ml/kg). Via the orifice, the cannula is introduced into the trachea and is forwarded into one of the main bronchi -just passing the bifurcature. During the insertion, the neck is palpated from the exterior to assure intratracheal positioning. The content of the syringe is injected followed by 2 sec pause. Thereafter, the cannula is slowly drawn back. The rats are kept anaesthesized during the test (blood samples for up to 4 or 8 hrs) and are euthanized after the experiment.

As to “A14E, B25H, B29K(N^ε-3-mdPEG24-Propionyl), desB30 human insulin [Example 1]”, the pulmonary efficacy entry is reported as “substantial protracted pulmonary efficacy”.
